Measured values taken from paper PMC7932537, “Quantitative profiling of protease specificity” (PLoS Computational Biology, 2021).

Experiments:
[1] = system: MMP-2; test: Substrate phage display with NGS: relative probability (RP) of P3-P1' tetramer clusters; type: biochemical, human; settings: for avg_RP: MMP2 - no binning; for relative probability (RP) of matching tetramer: P3-P1' tetramer matching the MS detected MMP2 cleavage sequence, RP_above_4.5
[2] = system: MMP-9; test: as above; type: biochemical, human
[3] = RP according to MMP2, P3-P1' tetramer of unique physiologic MMP2 substrates from MEROPS
[4] = RP of the P3-P1' tetramer, MMP2 substrate phage display/NGS, tetramers of physiologic MEROPS substrates common to MMP2 and MMP9
[5] = RP according to MMP9, P3-P1' tetramer of unique physiologic MMP9 substrates from MEROPS
[6] = RP of the P3-P1' tetramer, MMP9 substrate phage display/NGS, tetramers of physiologic MEROPS substrates common to MMP2 and MMP9
[7] = RP of the P3-P1' tetramer cluster contained in the hexamer, 200 nM MMP-2, 2 h, 37°C, two rounds of selection
[8] = MMP9, RP of the P3-P1' tetramer contained in the hexamer substrate (substrate phage display, NGS)
[9] = average relative probability of the tetramer, redundant tetramers averaged out
[10] = tetramer projected onto MMP-9 cleavage sites determined by Prudova et al. (2010)
[11] = tetramer probability in MMP9 set / naive library, 200 nM protease, 2 h, 37°C
[12] = MMP2, RP of matching P3-P1' tetramer, common set of MMP2-9 selectome, RP above KL threshold
[13] = RP of matching tetramer, common MMP2-9 selectome
[14] = MMP9, RP of matching P3-P1' tetramer, common set of MMP2-9 selectome
[15] = MMP9, RP of the P3-P1' tetramer matching the MS detected cleavage, RP above 4.7, substrate phage display with NGS
[16] = RP of matching tetramer, common MMP2-9 selectome, RP above KL threshold
[17] = average relative probability of the P3-P1' tetramer, redundant tetramers have been averaged out

PIQW
MMP2 relative probability (RP) ([1]; MMP2 tetramers from unique substrates, unrounded values): 8.258 | Relative probability (RP) rank [1, 3]: 5694 | relative probability (RP) [1, 3]: 8.26 | relative probability (RP) (acc.to MMP2) [1, 4]: 8.26 | corresponding MMP9 relative probability (RP) ([2]; MMP2 tetramers from unique substrates, RP of same tetramer for MMP9): 1.638 | Relative probability (RP) rank [2, 5]: 11221 | relative probability (RP) [2, 5]: 1.64 | relative probability (RP) (acc.to MMP9) [2, 6]: 1.64

PKALPY
relative probability (RP) [1, 7]: 34.4858 | relative probability (RP) [2, 8]: 48.3581

PKFL [P3-P1' tetramer cluster]
avg_RP [1, 9]: 23.745 | relative probability (RP) [2, 10]: 42.75

PKGA
relative probability (RP) (acc.to MMP2) [1, 4]: 0 | relative probability (RP) (acc.to MMP9) [2, 6]: 1.22

PKGQ
relative probability (RP) (acc.to MMP2) [1, 4]: 21.45 | relative probability (RP) (acc.to MMP9) [2, 6]: 35.93

PKGYQG
relative probability (RP) [1, 7]: 30.7046 | relative probability (RP) [2, 8]: 46.8538

PKKL
relative probability (RP) (acc.to MMP2) [1, 4]: 8.1 | relative probability (RP) (acc.to MMP9) [2, 6]: 23.95

PKWM [P3-P1' tetramer cluster]
avg_RP [1, 9]: 23.7433 | relative probability (RP) [2, 11]: 51.5185

PLAV
relative probability (RP) (acc.to MMP2) [1, 12]: 29.15 | relative probability (RP) of matching tetramer [1]: 29.15 | relative probability (RP) (acc.to MMP2) [1, 13]: 29.15 | relative probability (RP) (acc.to MMP9) [2, 14]: 44.77 | relative probability (RP) [2, 15]: 44.77 | relative probability (RP) (acc.to MMP9) [2, 16]: 44.77

PLNV
avg_RP [1, 17]: 24.9266 | relative probability (RP) (acc.to MMP2) [1, 12]: 24.93 | relative probability (RP) of matching tetramer [1]: 24.93 | relative probability (RP) (acc.to MMP2) [1, 13]: 24.93 | relative probability (RP) (acc.to MMP9) [2, 14]: 43.38 | relative probability (RP) [2, 15]: 43.38 | relative probability (RP) (acc.to MMP9) [2, 16]: 43.38

PLQLQT
relative probability (RP) [1, 7]: 30.1017 | relative probability (RP) [2, 8]: 45.7856

PLRQIG
relative probability (RP) [1, 7]: 11.8624 | relative probability (RP) [2, 8]: 29.0862

PLSL
avg_RP [1, 17]: 33.5282 | relative probability (RP) (acc.to MMP2) [1, 13]: 33.53 | relative probability (RP) [2, 15]: 48.17 | relative probability (RP) (acc.to MMP9) [2, 16]: 48.17

PLTL
avg_RP [1, 17]: 24.2603 | relative probability (RP) (acc.to MMP2) [1, 12]: 24.26 | relative probability (RP) of matching tetramer [1]: 24.26 | relative probability (RP) (acc.to MMP2) [1, 13]: 24.26 | relative probability (RP) (acc.to MMP9) [2, 14]: 41.2 | relative probability (RP) [2, 15]: 41.2 | relative probability (RP) (acc.to MMP9) [2, 16]: 41.2

PMAL
avg_RP [1, 9]: 34.1737 | relative probability (RP) (acc.to MMP2) [1, 13]: 34.17 | relative probability (RP) [2, 15]: 48.95 | relative probability (RP) (acc.to MMP9) [2, 16]: 48.95

PMALMD
relative probability (RP) [1, 7]: 34.1737 | relative probability (RP) [2, 8]: 48.9468

PMAM [P3-P1' tetramer cluster]
avg_RP [1, 9]: 30.2676 | relative probability (RP) [2, 11]: 51.1831

PMDIHA
relative probability (RP) [1, 7]: 8.254 | relative probability (RP) [2, 8]: 39.7367

PMFI
relative probability (RP) (acc.to MMP2) [1, 13]: 8.26 | relative probability (RP) [2, 15]: 35.87 | relative probability (RP) (acc.to MMP9) [2, 16]: 35.87

PNSM
relative probability (RP) (acc.to MMP2) [1, 12]: 14.95 | relative probability (RP) of matching tetramer [1]: 14.95 | relative probability (RP) (acc.to MMP2) [1, 13]: 14.95 | relative probability (RP) (acc.to MMP9) [2, 14]: 27.58 | relative probability (RP) [2, 15]: 27.58 | relative probability (RP) (acc.to MMP9) [2, 16]: 27.58

PPGA
relative probability (RP) (acc.to MMP2) [1, 4]: 0 | relative probability (RP) (acc.to MMP9) [2, 6]: 0.07

PPGE
relative probability (RP) (acc.to MMP2) [1, 4]: 0 | relative probability (RP) (acc.to MMP9) [2, 6]: 0.11

PPGK
relative probability (RP) (acc.to MMP2) [1, 4]: 0.14 | relative probability (RP) (acc.to MMP9) [2, 6]: 0

PPGL [P3-P1' tetramer cluster]
relative probability (RP) (acc.to MMP2) [1, 4]: 24.36 | relative probability (RP) (acc.to MMP9) [2, 6]: 34.4 | relative probability (RP) [2, 10]: 34.4
